{"source": "patent US20230414715A1", "about": "“TRAIL COMPOUNDS FOR REDUCING CANCER TREAMENT SIDE EFFECTS” (BROWN UNIVERSITY, priority 2022, published 2023)", "key": {"[1]": {"system": "lung tissue in irradiated C57B1/6 mice", "assay": "Immunohistochemistry of irradiated lung tissue", "type": "in vivo, mouse", "source_text": "Paraffin embedded sections of tissue were deparaffinized in xylene and rehydrated through graded ethanol solutions to phosphate-buffered saline (PBS). Heat-induced antigen retrieval (in 0.01 M citrate buffer; pH 6.0), endogenous peroxidase blocking (3% H202), and blocking were done using a standard protocol. […] Slides were developed with diaminobenzidine substrate (Vector Laboratories SK-4100) and counterstained with hematoxylin (Richard Allen Scientific). Slides were scanned (Olympus VS200) and representative brightfield images were taken and analyzed with OlyVIA software."}, "C57B1/6 mice": {"system": "C57B1/6 mice", "assay": "Radiation pneumonitis after whole-thorax x-ray irradiation, H&E of lung, wild-type mice", "type": "in vivo, mouse", "description": "However, before embarking on the planned experiment, we decided to perform a preliminary, short-term treatment feasibility experiment to ensure some mouse survival after 20 Gy of thoracic irradiation (FIG. 1B). The preliminary experiment was performed with WT and DR5-null mice that were irradiated with 20 Gy, and this was followed by either weekly doses of TIC10/ONC201 (100 mg/kg for total of two doses) or twice a week doses of TLY012 (10 mg/kg for total of four doses) for 2 weeks.\n(§1) Animal studies were carried out at Brown University facilities with approval from Brown University IACUC. C57B1/6 mice (Taconic), mice with bi-allelic loss of TRAIL Death Receptor-(DR5-/-) in a C57B1/6 background, and mice with bi-allelic loss of TRAIL (TRAIL -/-) in a C57B1/6 background were given a single whole-thorax x-ray (Philips RT250) irradiation dose of 20 Gy with shielding of other organs. 8-15-week-old male and female mice of each genotype were used. […] Treatment was continued for two weeks, where TLY012 was administered twice a week and ONC201 was administered once a week. For each genetic background, two mice received a control PO, two mice received TLY012 IP, and two mice received ONC201 PO. Mice were weighed twice a week, and 13 days post-irradiation all mice were euthanized. Organs were harvested from the mice and 600 μL of blood was collected via cardiac puncture for serum cytokine analysis. Organs were preserved in 10% formalin then embedded in paraffin and sectioned at a distance of 5 μm. […] TRAIL-/- female mice were also subjected to a survival study with a single whole-thorax radiation doses of 15 Gy or 18 Gy treated with the same regimen of TLY012 or control (n=2/radiation dose/treatment) (FIG. 3B). In order to determine the lethal dose of radiation for C57B1/6 mice, female C57B1/6 mice were treated with a single dose of whole-thorax irradiation of 25 Gy in a survival study where they were treated with either TLY012 or remained control (n=6/treatment) (FIG. 3C)."}, "serum cytokines": {"system": "serum cytokines", "assay": "Serum cytokine analysis (Luminex) of irradiated mice", "type": "in vivo, mouse", "conditions": "treated versus control", "description": "as §1\nAll mouse serum samples were analyzed by a custom R&D systems Murine Premixed Multi- Analyte Kit (R&D Systems, Inc., Minneapolis, MN). The panel was run on a Luminex 200 Instrument (Luminex Corporation, Austin, TX) according to the manufacturer's instructions. Murine serum levels of Angiopoietin-2, BAFF/BLyS/TNFSF13B, CCL2/JE/MCP-1, CCL3/MIP-1 alpha, CCL4/MIP-1 beta, CCL5/RANTES, CCL7/MCP-3/MARC, CCL11/Eotaxin, CCL12/MCP-5, CCL20/MIP-3 alpha, CCL21/6Ckine, CCL22/MDC, Chitinase 3-like 1, CXCL1/GRO alpha/KC/CINC-1, CXCL10/IP-10/CRG-2, CXCL12/S DF- 1 alpha, Dkk-1, FGF basic/FGF2/bFGF, GDF-15, GM-CSF, Granzyme B, IFN-gamma, IGF-I/IGF-1, IL-1 alpha/IL-1F1, IL-1 beta/IL-1F2, IL-2, IL-3, IL-4, IL-6, IL-7, IL-10, IL-13, IL-16, IL-17/IL-17A, IL-27, IL-33 M-CSF, MMP-3, MMP-8, MMP-12, Prolactin, TWEAK/TNFSF12, VEGF, and VEGFR2/KDR/Flk-1 were measured. Analyte values were reported in picograms per milliliter (pg/mL). […] Latent TGF-β was activated in samples using 1 N HCl and samples were neutralized with 1.2 N NaOH/0.5 M HEPES. Samples were assayed immediately after neutralization."}, "[2]": {"system": "e0771 orthotopic breast tumors in C57B1/6 mice", "assay": "Orthotopic e0771 breast tumor model with 20 Gy whole-thorax irradiation", "quoted_text": "C57B1/6 female mice (Taconic) were injected with 100,000 cells of murine breast cancer (e0771) in the right second mammary fat pad on day 0 of the experiment. […] Each group (n=3) also received a single whole-thorax x-ray irradiation dose of 20 Gy with shielding of other organs. One group (n=3) received no treatment and no radiation. The long axis and short axis of the tumors were measured using calipers and recorded twice a week. On day 18 all mice were euthanized at a humane endpoint, which was defined by 20% weight loss and/or a tumor volume of 2000 mm^3 (˜10% of body weight). Organs and tumors were harvested from the mice and 600 μL of blood was collected via cardiac puncture for serum cytokine analysis. Once tumors were extracted, they were weighed and measured to determine final volume and weight. Pulse oximeter readings were taken initially before radiation treatment and before sacrifice 9 days post-radiation (MouseSTAT Jr. Pulse Oximeter, Kent Scientific). When mice were under anesthesia the sensor of the MouseSTAT Jr. was placed on the hind right paw for 30 seconds. The highest and lowest values shown by the pulse oximeter during this time were recorded and then averaged together. The mean of all the averages per treatment group was then calculated."}, "duodenum, liver or heart": {"system": "duodenum, liver or heart", "assay": "H&E of duodenum, liver and heart of irradiated, treated mice", "conditions": "20 Gy irradiated mice, 2 weeks treatment", "description": "as §1, with “In order to determine the lethal dose of radiation for C57B1/6 mice, female C57B1/6 mice were treated with a single dose of whole-thorax irradiation of 25 Gy in a survival study where they were treated with either TLY012 or remained control (n=6/treatment) (FIG. 3C).” left out"}, "TRAIL-/- mice": {"system": "TRAIL-/- mice", "assay": "Radiation pneumonitis after whole-thorax x-ray irradiation, H&E of lung, TRAIL-null mice", "type": "in vivo, mouse", "conditions": "TRAIL-/- male or female mice, 20 Gy thoracic irradiation, two weeks treatment, FIG. 2A, B", "description": "as §1, with “In order to determine the lethal dose of radiation for C57B1/6 mice, female C57B1/6 mice were treated with a single dose of whole-thorax irradiation of 25 Gy in a survival study where they were treated with either TLY012 or remained control (n=6/treatment) (FIG. 3C).” left out"}, "[3]": {"conditions": "irradiated rescued versus irradiated control lung tissues"}, "[4]": {"conditions": "normal or inflamed lung, treated versus irradiated control"}}, "data": [{"smiles": "Cc1ccccc1CN1C(=O)C2=C(CCN(Cc3ccccc3)C2)N2CCN=C12", "note": "[ONC201, reference compound]", "values": [{"measurement": "NFkB", "setting": "[1]; [3]", "value": "no differences"}, {"measurement": "proliferation", "setting": "[1]; [3]", "value": "no differences"}, {"measurement": "DNA double strand break marker gamma-H2AX", "setting": "[1]; [4]", "value": "no difference"}, {"measurement": "T-cell infiltration (CD3-epsilon)", "setting": "[1]; [4]", "value": "no difference"}, {"measurement": "collagen in lungs", "setting": "[1]; rescued lungs versus irradiated control", "value": "less collagen"}, {"measurement": "protection from pneumonitis", "setting": "C57B1/6 mice; WT mice, 20 Gy thoracic irradiation, preliminary experiment, 2 weeks treatment, versus irradiated control, FIG. 1C", "value": "qualitative evidence of protection from pneumonitis"}, {"measurement": "rescue from radiation-induced pneumonitis", "setting": "C57B1/6 mice; irradiated C57B1/6 mice, FIG. 2", "value": "could rescue mice from radiation-induced pneumonitis"}, {"measurement": "FGF basic serum level", "setting": "serum cytokines", "value": "increase"}, {"measurement": "IGF1 serum level", "setting": "serum cytokines", "value": "upregulated"}, {"measurement": "effect on anti-tumor efficacy of radiation (tumor weight and volume)", "setting": "[2]; 20 Gy on day 9, treatment days 9, 12, 16, sacrifice day 18, FIG. 6B, C", "value": "no evidence that ONC201, TLY012 or their combination reduced efficacy of treatment"}, {"measurement": "oxygen saturation (pulse oximetry)", "setting": "[2]; 9 days post-radiation, versus irradiated mice without further treatment, FIG. 6D", "value": "partially rescued"}, {"measurement": "rescue from radiation induced pneumonitis", "setting": "[2]; tumor-bearing mice, 20 Gy", "value": "more potent by TLY012 than with ONC201"}, {"measurement": "toxicities in duodenum, liver or heart", "setting": "duodenum, liver or heart", "value": "No obvious toxicities"}, {"measurement": "rescue from radiation pneumonitis", "setting": "TRAIL-/- mice", "value": "did not"}]}]}
